ChEMBL document CHEMBL4257449, “New N-(2-phenyl-4-oxo-1,3-thiazolidin-3-yl)-1,2-benzothiazole-3-carboxamides and acetamides as antimicrobial agents” (2017)
≈ marks a conversion by molar mass, not a printed value.

Experiments:
Penicillium ochrochloron [1] = assay: Antifungal activity against Penicillium ochrochloron ATCC 9112 after 72 hrs by serial dilution method; assay type: functional; conditions: ATCC 9112, 72 h
Bacillus cereus [2] = assay: Antibacterial activity against Bacillus cereus after 24 hrs by microdilution method; assay type: functional
Bacillus cereus [3] = assay: Bactericidal activity against Bacillus cereus incubated for 24 hrs followed by serial sub-cultivation and measured after 24 hrs by microdilution method; assay type: functional
Micrococcus flavus [4] = assay: Antibacterial activity against Micrococcus flavus ATCC 10240 after 24 hrs by microdilution method; assay type: functional; conditions: ATCC 10240, 24 h
Micrococcus flavus [5] = assay: Bactericidal activity against Micrococcus flavus ATCC 10240 incubated for 24 hrs followed by serial sub-cultivation and measured after 24 hrs by microdilution method; assay type: functional
Staphylococcus aureus [6] = assay: Antibacterial activity against Staphylococcus aureus ATCC 6538 after 24 hrs by microdilution method; assay type: functional; conditions: ATCC 6538, 24 h
Staphylococcus aureus [7] = assay: Bactericidal activity against Staphylococcus aureus ATCC 6538 incubated for 24 hrs followed by serial sub-cultivation and measured after 24 hrs by microdilution method; assay type: functional
Listeria monocytogenes [8] = assay: Antibacterial activity against Listeria monocytogenes NCTC 7973 after 24 hrs by microdilution method; assay type: functional; conditions: NCTC 7973, 24 h
Listeria monocytogenes [9] = assay: Bactericidal activity against Listeria monocytogenes NCTC 7973 incubated for 24 hrs followed by serial sub-cultivation and measured after 24 hrs by microdilution method; assay type: functional
Escherichia coli [10] = assay: Antibacterial activity against Escherichia coli ATCC 35210 after 24 hrs by microdilution method; assay type: functional; conditions: ATCC 35210, 24 h
Escherichia coli [11] = assay: Bactericidal activity against Escherichia coli ATCC 35210 incubated for 24 hrs followed by serial sub-cultivation and measured after 24 hrs by microdilution method; assay type: functional
Enterobacter cloacae [12] = assay: Antibacterial activity against Enterobacter cloacae after 24 hrs by microdilution method; assay type: functional
Enterobacter cloacae [13] = assay: Bactericidal activity against Enterobacter cloacae incubated for 24 hrs followed by serial sub-cultivation and measured after 24 hrs by microdilution method; assay type: functional
Pseudomonas aeruginosa [14] = assay: Antibacterial activity against Pseudomonas aeruginosa ATCC 27853 after 24 hrs by microdilution method; assay type: functional; conditions: ATCC 27853, 24 h
Pseudomonas aeruginosa [15] = assay: Bactericidal activity against Pseudomonas aeruginosa ATCC 27853 incubated for 24 hrs followed by serial sub-cultivation and measured after 24 hrs by microdilution method; assay type: functional
Salmonella typhimurium [16] = assay: Antibacterial activity against Salmonella typhimurium ATCC 13311 after 24 hrs by microdilution method; assay type: functional, Salmonella enterica subsp. enterica serovar Typhimurium; conditions: Salmonella enterica, ATCC 13311, 24 h
Salmonella typhimurium [17] = assay: Bactericidal activity against Salmonella typhimurium ATCC 13311 incubated for 24 hrs followed by serial sub-cultivation and measured after 24 hrs by microdilution method; assay type: functional, Salmonella enterica subsp. enterica serovar Typhimurium
Aspergillus versicolor [18] = assay: Antifungal activity against Aspergillus versicolor ATCC 11730 after 72 hrs by serial dilution method; assay type: functional; conditions: ATCC 11730, 72 h
Aspergillus fumigatus [19] = assay: Antifungal activity against Aspergillus fumigatus after 72 hrs by serial dilution method; assay type: functional
Aspergillus fumigatus [20] = assay: Fungicidal activity against Aspergillus fumigatus incubated for 72 hrs followed by serial sub-cultivation for 72 hrs and measured after 72 hrs by serial dilution method; assay type: functional
Aspergillus versicolor [21] = assay: Fungicidal activity against Aspergillus versicolor ATCC 11730 incubated for 72 hrs followed by serial sub-cultivation for 72 hrs and measured after 72 hrs by serial dilution method; assay type: functional
Aspergillus ochraceus [22] = assay: Antifungal activity against Aspergillus ochraceus ATCC 12066 after 72 hrs by serial dilution method; assay type: functional; conditions: ATCC 12066, 72 h
Aspergillus ochraceus [23] = assay: Fungicidal activity against Aspergillus ochraceus ATCC 12066 incubated for 72 hrs followed by serial sub-cultivation for 72 hrs and measured after 72 hrs by serial dilution method; assay type: functional
Aspergillus niger [24] = assay: Antifungal activity against Aspergillus niger ATCC 6275 after 72 hrs by serial dilution method; assay type: functional; conditions: ATCC 6275, 72 h
Aspergillus niger [25] = assay: Fungicidal activity against Aspergillus niger ATCC 6275 incubated for 72 hrs followed by serial sub-cultivation for 72 hrs and measured after 72 hrs by serial dilution method; assay type: functional
Trichoderma viride [26] = assay: Antifungal activity against Trichoderma viride IAM 5061 after 72 hrs by serial dilution method; assay type: functional; conditions: IAM 5061, 72 h
Trichoderma viride [27] = assay: Fungicidal activity against Trichoderma viride IAM 5061 incubated for 72 hrs followed by serial sub-cultivation for 72 hrs and measured after 72 hrs by serial dilution method; assay type: functional
Talaromyces funiculosus [28] = assay: Antifungal activity against Penicillium funiculosum ATCC 36839 after 72 hrs by serial dilution method; assay type: functional; conditions: ATCC 36839, 72 h
Talaromyces funiculosus [29] = assay: Fungicidal activity against Penicillium funiculosum ATCC 36839 incubated for 72 hrs followed by serial sub-cultivation for 72 hrs and measured after 72 hrs by serial dilution method; assay type: functional
Penicillium ochrochloron [30] = assay: Fungicidal activity against Penicillium ochrochloron ATCC 9112 incubated for 72 hrs followed by serial sub-cultivation for 72 hrs and measured after 72 hrs by serial dilution method; assay type: functional
Candida albicans [31] = assay: Antifungal activity against Candida albicans after 72 hrs by serial dilution method; assay type: functional
Candida albicans [32] = assay: Fungicidal activity against Candida albicans incubated for 72 hrs followed by serial sub-cultivation for 72 hrs and measured after 72 hrs by serial dilution method; assay type: functional

SMILES | MIC (Penicillium ochrochloron [1]) | MIC (Bacillus cereus [2]) | MBC99.5 (Bacillus cereus [3]) | MIC (Micrococcus flavus [4]) | MBC99.5 (Micrococcus flavus [5]) | MIC (Staphylococcus aureus [6]) | MBC99.5 (Staphylococcus aureus [7]) | MIC (Listeria monocytogenes [8]) | MBC99.5 (Listeria monocytogenes [9]) | MIC (Escherichia coli [10]) | MBC99.5 (Escherichia coli [11]) | MIC (Enterobacter cloacae [12]) | MBC99.5 (Enterobacter cloacae [13]) | MIC (Pseudomonas aeruginosa [14]) | MBC99.5 (Pseudomonas aeruginosa [15]) | MIC (Salmonella typhimurium [16]) | MBC99.5 (Salmonella typhimurium [17]) | MIC (Aspergillus versicolor [18]) | MIC (Aspergillus fumigatus [19]) | MFC99.5 (Aspergillus fumigatus [20]) | other results
O=C(Cc1nsc2ccccc12)NN1C(=O)CSC1c1ccc(Cl)cc1 (stereo unspecified) | 100 µM (≈ 40.4 µg/mL) | 100 µM (≈ 40.4 µg/mL) | 19.8 ×10⁻² umol/ml | 273 µM (≈ 110 µg/mL) | 37.2 ×10⁻² umol/ml | 198 µM (≈ 80 µg/mL) | 37.2 ×10⁻² umol/ml | 744 µM (≈ 301 µg/mL) | 111.6 ×10⁻² umol/ml | 273 µM (≈ 110 µg/mL) | 37.2 ×10⁻² umol/ml | 570 µM (≈ 230 µg/mL) | 74.4 ×10⁻² umol/ml | 372 µM (≈ 150 µg/mL) | 74.4 ×10⁻² umol/ml | 372 µM (≈ 150 µg/mL) | 74.4 ×10⁻² umol/ml | 100 µM (≈ 40.4 µg/mL) | 372 µM (≈ 150 µg/mL) | 74.4 ×10⁻² umol/ml | MFC99.5 (Aspergillus versicolor [21]): 19.8 ×10⁻² umol/ml; MIC (Aspergillus ochraceus [22]): 100 µM (≈ 40.4 µg/mL); MFC99.5 (Aspergillus ochraceus [23]): 19.8 ×10⁻² umol/ml; MIC (Aspergillus niger [24]): 198 µM (≈ 80 µg/mL); MFC99.5 (Aspergillus niger [25]): 37.2 ×10⁻² umol/ml; MIC (Trichoderma viride [26]): 100 µM (≈ 40.4 µg/mL); MFC99.5 (Trichoderma viride [27]): 19.8 ×10⁻² umol/ml; MIC (Talaromyces funiculosus [28]): 144 µM (≈ 58.2 µg/mL); MFC99.5 (Talaromyces funiculosus [29]): 19.8 ×10⁻² umol/ml; MFC99.5 (Penicillium ochrochloron [30]): 19.8 ×10⁻² umol/ml; MIC (Candida albicans [31]): 198 µM (≈ 80 µg/mL); MFC99.5 (Candida albicans [32]): 37.2 ×10⁻² umol/ml
O=C(NN1C(=O)CSC1c1ccccc1Cl)c1nsc2ccccc12 (stereo unspecified) | 384 µM (≈ 150 µg/mL) | 154 µM (≈ 60 µg/mL) | 38.4 ×10⁻² umol/ml | 384 µM (≈ 150 µg/mL) | 76.8 ×10⁻² umol/ml | 102 µM (≈ 39.8 µg/mL) | 38.4 ×10⁻² umol/ml | 589 µM (≈ 230 µg/mL) | 76.8 ×10⁻² umol/ml | 282 µM (≈ 110 µg/mL) | 38.4 ×10⁻² umol/ml | 205 µM (≈ 79.9 µg/mL) | 38.4 ×10⁻² umol/ml | 282 µM (≈ 110 µg/mL) | 38.4 ×10⁻² umol/ml | 205 µM (≈ 79.9 µg/mL) | 38.4 ×10⁻² umol/ml | 25.6 µM (≈ 9.98 µg/mL) | 102 µM (≈ 40 µg/mL) | 20.5 ×10⁻² umol/ml | MFC99.5 (Aspergillus versicolor [21]): 5.1 ×10⁻² umol/ml; MIC (Aspergillus ochraceus [22]): 102 µM (≈ 39.8 µg/mL); MFC99.5 (Aspergillus ochraceus [23]): 20.5 ×10⁻² umol/ml; MIC (Aspergillus niger [24]): 102 µM (≈ 39.8 µg/mL); MFC99.5 (Aspergillus niger [25]): 20.5 ×10⁻² umol/ml; MIC (Trichoderma viride [26]): 102 µM (≈ 39.8 µg/mL); MFC99.5 (Trichoderma viride [27]): 20.5 ×10⁻² umol/ml; MIC (Talaromyces funiculosus [28]): 205 µM (≈ 79.9 µg/mL); MFC99.5 (Talaromyces funiculosus [29]): 38.4 ×10⁻² umol/ml; MFC99.5 (Penicillium ochrochloron [30]): 76.8 ×10⁻² umol/ml; MIC (Candida albicans [31]): 384 µM (≈ 150 µg/mL); MFC99.5 (Candida albicans [32]): 76.8 ×10⁻² umol/ml
O=C(NN1C(=O)CSC1c1c(F)cccc1F)c1nsc2ccccc12 (stereo unspecified) | 102 µM (≈ 39.9 µg/mL) | 102 µM (≈ 39.9 µg/mL) | 20.4 ×10⁻² umol/ml | 102 µM (≈ 39.9 µg/mL) | 20.4 ×10⁻² umol/ml | 102 µM (≈ 39.9 µg/mL) | 20.4 ×10⁻² umol/ml | 204 µM (≈ 79.9 µg/mL) | 40.8 ×10⁻² umol/ml | 102 µM (≈ 39.9 µg/mL) | 20.4 ×10⁻² umol/ml | 102 µM (≈ 39.9 µg/mL) | 20.4 ×10⁻² umol/ml | 204 µM (≈ 79.9 µg/mL) | 40.8 ×10⁻² umol/ml | 204 µM (≈ 79.9 µg/mL) | 40.8 ×10⁻² umol/ml | 204 µM (≈ 79.9 µg/mL) | 408 µM (≈ 160 µg/mL) | 51 ×10⁻² umol/ml | MFC99.5 (Aspergillus versicolor [21]): 40.8 ×10⁻² umol/ml; MIC (Aspergillus ochraceus [22]): 51 µM (≈ 20 µg/mL); MFC99.5 (Aspergillus ochraceus [23]): 10.2 ×10⁻² umol/ml; MIC (Aspergillus niger [24]): 204 µM (≈ 79.9 µg/mL); MFC99.5 (Aspergillus niger [25]): 40.8 ×10⁻² umol/ml; MIC (Trichoderma viride [26]): 51 µM (≈ 20 µg/mL); MFC99.5 (Trichoderma viride [27]): 10.2 ×10⁻² umol/ml; MIC (Talaromyces funiculosus [28]): 102 µM (≈ 39.9 µg/mL); MFC99.5 (Talaromyces funiculosus [29]): 20.4 ×10⁻² umol/ml; MFC99.5 (Penicillium ochrochloron [30]): 51 ×10⁻² umol/ml; MIC (Candida albicans [31]): 408 µM (≈ 160 µg/mL); MFC99.5 (Candida albicans [32]): 51 ×10⁻² umol/ml
